The record followed here is ChEMBL document CHEMBL2203055, “From α4β2 Nicotinic Ligands to the Discovery of σ1 Receptor Ligands: Pharmacophore Analysis and Rational Design” (ACS Med Chem Lett, 2012).

Assay [1] addresses Sodium-dependent noradrenaline transporter (Homo sapiens, UniProt P23975). The assay can be described thus: Displacement of [3H]nisoxetine from human recombinant NET after 1.5 hrs by microbeta scintillation counting analysis. On the technique in general: Loss of bound radioactivity is the signal in a displacement assay; it reports binding, not function.
The target in assay [2] is Mu-type opioid receptor (Homo sapiens) (UniProt P35372). The assay can be described thus: Displacement of [3H]DAMGO from mu-opioid receptor at 10 uM after 1.5 hrs by microbeta scintillation counting analysis.
In assay [3] the target is D(1A) dopamine receptor (Homo sapiens) (UniProt P21728). The assay can be described thus: Displacement of [3H]SCH23390 from human recombinant D1 receptor at 10 uM after 1.5 hrs by microbeta scintillation counting analysis.
Assay [4] is described as follows: Selectivity ratio of Ki for human recombinant NET to Ki for sigma 1 receptor in rat brain membrane. The assay is classed as cell membranes.
Assay [5] has as its target Beta-3 adrenergic receptor (Homo sapiens) (UniProt P13945). The assay can be described thus: Displacement of [125I]Iodopindolol from beta 3 adrenergic receptor at 10 uM after 1.5 hrs by microbeta scintillation counting analysis.
In assay [6] the target is Sodium-dependent serotonin transporter (Homo sapiens) (UniProt P31645). The assay can be described thus: Displacement of [3H]citalopram from human recombinant SERT at 10 uM after 1.5 hrs by microbeta scintillation counting analysis.
The target in assay [7] is D(3) dopamine receptor (Homo sapiens) (UniProt P35462). The assay can be described thus: Displacement of [3H]N-methylspiperone from D3 receptor at 10 uM after 1.5 hrs by microbeta scintillation counting analysis.
Assay [8] concerns the target Alpha-1A adrenergic receptor (Homo sapiens) (UniProt P35348). The assay can be described thus: Displacement of [3H]prazosin from alpha 1A adrenergic receptor at 10 uM after 1 hr by microbeta scintillation counting analysis.
The target in assay [9] is Histamine H1 receptor (Homo sapiens, UniProt P35367). The assay can be described thus: Displacement of [3H]pyrilamine from human recombinant histamine H1 receptor after 1.5 hrs by microbeta scintillation counting analysis.
In assay [10] the target is T1, Sodium-dependent dopamine transporter (Homo sapiens, UniProt Q01959). The assay can be described thus: Displacement of [3H]WIN35428 from human recombinant DAT after 1.5 hrs by microbeta scintillation counting analysis.
Assay [11] has as its target 5-hydroxytryptamine receptor 2B (Homo sapiens, UniProt P41595). The assay can be described thus: Displacement of [3H]LSD from human recombinant 5-HT2B receptor after 1.5 hrs by microbeta scintillation counting analysis.
The target in assay [12] is Beta-1 adrenergic receptor (Homo sapiens) (UniProt P08588). The assay can be described thus: Displacement of [125I]Iodopindolol from beta 1 adrenergic receptor at 10 uM after 1.5 hrs by microbeta scintillation counting analysis.
For assay [13], the target named is Histamine H3 receptor (Homo sapiens) (UniProt Q9Y5N1). The assay can be described thus: Displacement of [3H]alpha-methylhistamine from human recombinant histamine H3 receptor at 10 uM after 1.5 hrs by microbeta scintillation counting analysis.
In assay [14] the target is Neuronal acetylcholine receptor; alpha3/beta2 (Homo sapiens) (UniProt P17787+P32297). The assay can be described thus: Displacement of [3H]epibatidine from alpha3beta2 nAChR at 10 uM after 4 hrs by liquid scintillation counting analysis. The assay is classed as protein-complex assay.
For assay [15], the target named is Histamine H2 receptor (Homo sapiens, UniProt P25021). The assay can be described thus: Displacement of [3H]tiotidine from human recombinant histamine H2 receptor after 1.5 hrs by microbeta scintillation counting analysis.
The target of assay [16] is 5-hydroxytryptamine receptor 2A (Homo sapiens, UniProt P28223). The assay can be described thus: Displacement of [3H]ketanserin from human recombinant 5-HT2A receptor after 1.5 hrs by microbeta scintillation counting analysis.
Assay [17] has as its target Histamine H4 receptor (Homo sapiens) (UniProt Q9H3N8). The assay can be described thus: Displacement of [3H]histamine from histamine H4 receptor at 10 uM after 1.5 hrs by microbeta scintillation counting analysis.
Assay [18] deals with Neuronal acetylcholine receptor; alpha2/beta4 (Homo sapiens) (UniProt P30926+Q15822). The assay can be described thus: Displacement of [3H]epibatidine from alpha2beta4 nAChR at 10 uM after 4 hrs by liquid scintillation counting analysis. The assay is classed as protein-complex assay.
Assay [19] concerns the target Neuronal acetylcholine receptor; alpha4/beta2 (Homo sapiens) (UniProt P17787+P43681). The assay can be described thus: Displacement of [3H]epibatidine from alpha4beta2 nAChR at 10 uM after 4 hrs by liquid scintillation counting analysis. The assay is classed as protein-complex assay.
Assay [20] concerns the target T1, Sodium-dependent dopamine transporter. The assay can be described thus: Displacement of [3H]WIN35428 from human recombinant DAT at 10 uM after 1.5 hrs by microbeta scintillation counting analysis.
Assay [21] is described as follows: Selectivity ratio of Ki for human recombinant DAT to Ki for sigma 1 receptor in rat brain membrane. Format: cell membranes.
In assay [22] the target is Neuronal acetylcholine receptor; alpha3/beta4 (Homo sapiens) (UniProt P30926+P32297). The assay can be described thus: Displacement of [3H]epibatidine from alpha3beta4 nAChR at 10 uM after 4 hrs by liquid scintillation counting analysis. The assay is classed as protein-complex assay.
Assay [23] addresses D(1B) dopamine receptor (Homo sapiens) (UniProt P21918). The assay can be described thus: Displacement of [3H]SCH23390 from human recombinant D5 receptor at 10 uM after 1.5 hrs by microbeta scintillation counting analysis.
Assay [24] addresses Beta-2 adrenergic receptor (Homo sapiens, UniProt P07550). The assay can be described thus: Displacement of [125I]Iodopindolol from beta 2 adrenergic receptor after 1.5 hrs by microbeta scintillation counting analysis.
The target of assay [25] is Neuronal acetylcholine receptor; alpha4/beta2 (Rattus norvegicus) (UniProt P09483+P12390). The assay can be described thus: Displacement of [3H]epibatidine from alpha4beta2* nAChR in rat forebrain at 10 uM after 4 hrs by liquid scintillation counting analysis.
Assay [26] deals with Neuronal acetylcholine receptor; alpha2/beta2 (Homo sapiens) (UniProt P17787+Q15822). The assay can be described thus: Displacement of [3H]epibatidine from alpha2beta2 nAChR at 10 uM after 4 hrs by liquid scintillation counting analysis. Format: protein-complex assay.
Assay [27] deals with Neuronal acetylcholine receptor; alpha4/beta4 (Homo sapiens) (UniProt P30926+P43681). The assay can be described thus: Displacement of [3H]epibatidine from alpha4beta4 nAChR at 10 uM after 4 hrs by liquid scintillation counting analysis. Format: protein-complex assay.
Assay [28] addresses 5-hydroxytryptamine receptor 6 (Homo sapiens, UniProt P50406). The assay can be described thus: Displacement of [3H]LSD from human recombinant 5-HT6 receptor after 1.5 hrs by microbeta scintillation counting analysis.

The structures appear in SMILES notation.

T1 sequence (Q01959 whole entry): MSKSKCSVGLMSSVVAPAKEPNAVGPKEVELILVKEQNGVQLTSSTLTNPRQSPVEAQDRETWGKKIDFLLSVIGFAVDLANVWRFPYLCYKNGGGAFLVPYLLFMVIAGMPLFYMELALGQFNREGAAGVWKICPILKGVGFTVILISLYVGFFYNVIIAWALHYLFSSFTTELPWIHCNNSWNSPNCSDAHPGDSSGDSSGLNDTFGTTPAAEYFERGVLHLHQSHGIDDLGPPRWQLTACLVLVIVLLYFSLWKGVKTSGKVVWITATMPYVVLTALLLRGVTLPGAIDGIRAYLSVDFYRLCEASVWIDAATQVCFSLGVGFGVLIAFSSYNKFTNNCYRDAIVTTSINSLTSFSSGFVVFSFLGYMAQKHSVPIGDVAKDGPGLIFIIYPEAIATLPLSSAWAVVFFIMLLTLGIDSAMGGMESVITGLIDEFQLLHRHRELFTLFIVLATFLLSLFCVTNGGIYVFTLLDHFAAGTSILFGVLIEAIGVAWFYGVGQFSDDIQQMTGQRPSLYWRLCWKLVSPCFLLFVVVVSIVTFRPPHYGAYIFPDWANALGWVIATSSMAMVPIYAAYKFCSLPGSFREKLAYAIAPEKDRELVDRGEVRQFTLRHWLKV
Sodium-dependent serotonin transporter (Homo sapiens), sequence (P31645 whole entry, looked up): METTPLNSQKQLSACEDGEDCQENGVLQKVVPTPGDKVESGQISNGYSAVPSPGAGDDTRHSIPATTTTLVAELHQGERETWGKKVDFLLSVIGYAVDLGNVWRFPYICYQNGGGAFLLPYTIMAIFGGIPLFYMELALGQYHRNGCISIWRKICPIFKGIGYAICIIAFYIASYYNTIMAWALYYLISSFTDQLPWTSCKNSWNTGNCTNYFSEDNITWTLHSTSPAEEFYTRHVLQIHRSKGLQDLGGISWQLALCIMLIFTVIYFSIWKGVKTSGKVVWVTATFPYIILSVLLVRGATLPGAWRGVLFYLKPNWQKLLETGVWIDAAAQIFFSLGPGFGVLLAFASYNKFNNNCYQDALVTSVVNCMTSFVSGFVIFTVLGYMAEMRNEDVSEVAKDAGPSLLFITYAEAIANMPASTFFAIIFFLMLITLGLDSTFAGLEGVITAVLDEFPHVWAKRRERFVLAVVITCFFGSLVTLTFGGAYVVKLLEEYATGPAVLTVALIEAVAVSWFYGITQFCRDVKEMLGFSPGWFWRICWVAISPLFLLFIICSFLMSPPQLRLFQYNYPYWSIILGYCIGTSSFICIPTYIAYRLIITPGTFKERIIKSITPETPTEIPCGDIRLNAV
Sodium-dependent noradrenaline transporter, sequence (P23975 whole entry): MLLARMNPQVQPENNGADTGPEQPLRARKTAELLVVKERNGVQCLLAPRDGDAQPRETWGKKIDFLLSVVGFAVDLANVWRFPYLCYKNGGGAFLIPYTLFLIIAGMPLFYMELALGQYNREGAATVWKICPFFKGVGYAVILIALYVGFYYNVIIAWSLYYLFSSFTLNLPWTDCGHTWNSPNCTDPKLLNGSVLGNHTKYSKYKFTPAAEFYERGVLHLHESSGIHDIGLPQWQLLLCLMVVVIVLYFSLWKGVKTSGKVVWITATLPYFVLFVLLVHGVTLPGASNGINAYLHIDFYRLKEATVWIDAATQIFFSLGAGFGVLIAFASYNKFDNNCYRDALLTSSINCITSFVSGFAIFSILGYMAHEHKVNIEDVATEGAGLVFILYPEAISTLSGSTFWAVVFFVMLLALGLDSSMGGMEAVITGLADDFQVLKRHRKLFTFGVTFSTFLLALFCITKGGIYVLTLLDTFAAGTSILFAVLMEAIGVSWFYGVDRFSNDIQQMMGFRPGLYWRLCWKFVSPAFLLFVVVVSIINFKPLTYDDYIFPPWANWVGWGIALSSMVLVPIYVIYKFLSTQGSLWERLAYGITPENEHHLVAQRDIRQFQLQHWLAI
D(3) dopamine receptor (Homo sapiens), sequence (P35462 whole entry): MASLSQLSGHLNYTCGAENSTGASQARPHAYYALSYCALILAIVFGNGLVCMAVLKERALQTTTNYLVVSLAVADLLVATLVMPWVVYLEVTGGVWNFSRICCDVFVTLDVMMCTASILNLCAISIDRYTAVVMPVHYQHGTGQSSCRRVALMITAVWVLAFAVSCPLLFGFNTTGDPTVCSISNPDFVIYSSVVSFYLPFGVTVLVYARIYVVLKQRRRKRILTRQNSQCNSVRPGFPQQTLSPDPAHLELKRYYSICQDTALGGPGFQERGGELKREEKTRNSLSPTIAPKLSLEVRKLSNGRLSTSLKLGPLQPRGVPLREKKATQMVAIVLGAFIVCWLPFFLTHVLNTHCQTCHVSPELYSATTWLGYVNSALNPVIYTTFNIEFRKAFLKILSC
Histamine H4 receptor (Homo sapiens), sequence (Q9H3N8 whole entry): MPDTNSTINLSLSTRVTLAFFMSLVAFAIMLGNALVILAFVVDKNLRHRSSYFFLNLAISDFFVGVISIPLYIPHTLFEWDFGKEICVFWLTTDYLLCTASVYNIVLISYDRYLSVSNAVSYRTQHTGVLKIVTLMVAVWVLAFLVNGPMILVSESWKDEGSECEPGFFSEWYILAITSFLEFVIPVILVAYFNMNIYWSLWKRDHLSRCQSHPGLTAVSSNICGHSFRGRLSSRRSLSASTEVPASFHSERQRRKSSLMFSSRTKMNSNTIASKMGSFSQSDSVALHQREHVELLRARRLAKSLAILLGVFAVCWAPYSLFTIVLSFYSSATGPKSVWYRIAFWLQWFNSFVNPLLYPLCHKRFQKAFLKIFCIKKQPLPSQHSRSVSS
Alpha-1A adrenergic receptor (Homo sapiens), sequence (P35348 whole entry): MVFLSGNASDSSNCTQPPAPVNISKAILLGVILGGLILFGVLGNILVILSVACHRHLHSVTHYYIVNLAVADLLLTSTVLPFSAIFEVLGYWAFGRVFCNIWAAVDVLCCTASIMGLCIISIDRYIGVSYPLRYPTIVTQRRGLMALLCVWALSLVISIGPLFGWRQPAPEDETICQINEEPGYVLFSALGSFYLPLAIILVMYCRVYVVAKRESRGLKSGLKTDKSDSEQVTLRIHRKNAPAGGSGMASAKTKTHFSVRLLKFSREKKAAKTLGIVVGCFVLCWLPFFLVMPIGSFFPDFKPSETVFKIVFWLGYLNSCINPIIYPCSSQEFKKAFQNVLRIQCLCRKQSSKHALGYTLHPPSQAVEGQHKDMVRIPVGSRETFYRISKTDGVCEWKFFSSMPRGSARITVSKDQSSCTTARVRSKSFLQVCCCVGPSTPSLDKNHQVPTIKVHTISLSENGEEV
Mu-type opioid receptor (Homo sapiens), sequence (P35372 whole entry): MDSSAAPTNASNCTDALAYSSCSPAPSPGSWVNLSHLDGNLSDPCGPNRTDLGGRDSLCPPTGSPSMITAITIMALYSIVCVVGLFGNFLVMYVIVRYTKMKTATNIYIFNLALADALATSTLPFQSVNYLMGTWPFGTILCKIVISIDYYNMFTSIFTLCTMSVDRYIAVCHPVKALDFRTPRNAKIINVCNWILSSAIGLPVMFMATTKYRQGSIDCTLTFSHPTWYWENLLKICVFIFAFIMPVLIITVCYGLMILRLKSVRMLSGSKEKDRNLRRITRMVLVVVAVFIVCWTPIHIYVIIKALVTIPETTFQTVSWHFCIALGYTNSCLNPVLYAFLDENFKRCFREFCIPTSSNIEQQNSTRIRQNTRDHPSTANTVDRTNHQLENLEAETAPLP
Histamine H3 receptor (Homo sapiens), sequence (Q9Y5N1 whole entry): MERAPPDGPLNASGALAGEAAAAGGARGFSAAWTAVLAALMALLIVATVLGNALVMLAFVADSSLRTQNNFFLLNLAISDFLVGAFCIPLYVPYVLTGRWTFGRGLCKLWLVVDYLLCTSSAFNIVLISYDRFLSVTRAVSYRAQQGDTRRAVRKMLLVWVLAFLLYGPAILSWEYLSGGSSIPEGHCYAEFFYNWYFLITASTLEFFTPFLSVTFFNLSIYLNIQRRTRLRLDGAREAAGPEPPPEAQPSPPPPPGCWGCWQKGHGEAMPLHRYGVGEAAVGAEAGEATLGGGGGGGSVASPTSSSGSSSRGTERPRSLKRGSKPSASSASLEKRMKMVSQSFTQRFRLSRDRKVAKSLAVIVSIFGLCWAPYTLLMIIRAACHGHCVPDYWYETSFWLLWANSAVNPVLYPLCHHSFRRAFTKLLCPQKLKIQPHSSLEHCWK
Beta-1 adrenergic receptor (Homo sapiens), sequence (P08588 whole entry, looked up): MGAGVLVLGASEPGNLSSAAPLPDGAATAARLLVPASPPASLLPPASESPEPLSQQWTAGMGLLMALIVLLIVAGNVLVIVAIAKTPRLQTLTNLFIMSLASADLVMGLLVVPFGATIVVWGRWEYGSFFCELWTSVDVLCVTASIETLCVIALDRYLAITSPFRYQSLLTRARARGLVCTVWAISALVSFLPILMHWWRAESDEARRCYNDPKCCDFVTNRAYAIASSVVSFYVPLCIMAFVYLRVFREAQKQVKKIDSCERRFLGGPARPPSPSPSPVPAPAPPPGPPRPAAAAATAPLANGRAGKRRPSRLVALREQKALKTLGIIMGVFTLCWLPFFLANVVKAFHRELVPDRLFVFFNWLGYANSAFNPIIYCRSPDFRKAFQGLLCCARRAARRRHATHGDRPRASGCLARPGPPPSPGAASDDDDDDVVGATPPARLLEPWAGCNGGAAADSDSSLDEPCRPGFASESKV
Beta-3 adrenergic receptor (Homo sapiens), sequence (P13945 whole entry, looked up): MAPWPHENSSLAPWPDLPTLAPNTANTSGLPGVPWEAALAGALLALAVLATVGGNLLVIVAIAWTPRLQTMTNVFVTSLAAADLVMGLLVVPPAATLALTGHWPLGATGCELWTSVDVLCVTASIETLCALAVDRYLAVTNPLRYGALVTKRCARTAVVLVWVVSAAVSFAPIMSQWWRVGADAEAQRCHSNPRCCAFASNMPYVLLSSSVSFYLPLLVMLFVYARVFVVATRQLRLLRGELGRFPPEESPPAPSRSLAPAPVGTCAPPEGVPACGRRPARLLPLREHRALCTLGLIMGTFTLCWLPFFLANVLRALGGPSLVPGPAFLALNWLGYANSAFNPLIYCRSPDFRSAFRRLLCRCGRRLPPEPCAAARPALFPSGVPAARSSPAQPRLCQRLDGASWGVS

Take `c1ccc(OCc2cc(OC[C@@H]3CCCN3)no2)cc1`: the Ki (usually the equilibrium dissociation constant of an inhibitor or competing ligand from its target) in [1] was 0.203 µM; in assay [9], above 10 µM; in assay [10] it was 0.373 µM; in assay [11], 5.1 µM; in assay [15], 5.16 µM; in [16], 4.41 µM. In assay [24], this compound came in with a Ki above 10 µM. Also, the Efficacy in [2] was 29.8%; in assay [3], -5.7%; in [5], 7.2%; in assay [6] it was 3.4%; in assay [7] it was 35.9%; in assay [8], 21%. Besides, the Efficacy in assay [12] was -1.2%; in [13], -4.9%; in assay [17], 26.5%; in assay [20], 59.4%; in assay [23], 36.5%. For the same compound, the results for the Ratio Ki in assay [4] and in assay [21] were 50 and 90, respectively. Further, the Activity in [14], in [18], in [19], in assay [22], in [25] and in assay [26] was below 50% in each case. This compound also came in with an Activity in [27] below 50%.
For `c1ccc(OCc2cc(OC[C@@H]3CCN3)no2)cc1`, the Ki in assay [1] is 0.191 µM; in assay [10], 0.024 µM; in assay [16], 6.4 µM; in assay [28] it was above 10 µM. The Efficacy in [2] was 38.1%; in assay [3], 6.1%; in assay [5], -1.5%; in assay [6] it was 8.8%; in assay [7], 12.9%; in assay [8], 17.5%. Besides, the Efficacy in assay [12] is 22.1%; in assay [13], 4.7%; in [17], 42.6%; in [20], 91.8%; in assay [23], 4.9%.
